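Growth conditions: 96-well plates. Treatment: test compound, 48 hours, 5 concentrations. Analysis: linear interpolation between bracketing concentrations; unreached endpoints set to highest concentration. GI50 is the concentration that inhibits growth by half. Definition used: TGI = concentration required for complete inhibition of growth.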
Experiments:
Assay in all cases: inhibition of tumour cell growth, NCI panel, 48 h
[1] = tested on: RXF 393 renal
[2] = tested on: NCI-H226 lung
[3] = tested on: CCRF-CEM leukemia
[4] = tested on: NCI-H522 lung
[5] = tested on: SF-295 CNS
[6] = tested on: OVCAR-8 ovarian
[7] = tested on: SK-MEL-2 melanoma
[8] = tested on: HL-60(TB) leukemia
[9] = tested on: ACHN renal
[10] = tested on: MALME-3M melanoma

Q: What does the source list for `O=C1Nc2ccccc2C1Cc1ccc([N+](=O)[O-])cc1` (stereo not given)?
A: TGI [1]: > 100 µM; TGI [2]: > 100 µM; TGI [3]: > 100 µM; TGI [4]: > 100 µM; TGI [5]: > 100 µM; TGI [6]: > 100 µM; TGI [7]: > 100 µM; TGI [8]: > 100 µM; TGI [9]: > 100 µM

Q: `NC(=NC1CCCCCCC1)c1ccc(N2CCN(c3ccc(C(N)=NC4CCCCCCC4)cc3)CC2)cc1` was tested. Which GI50 [2] did it give?
A: Its GI50 is 11.5 µM.

Q: What about the TGI [2] of the same compound?
A: Its TGI is 39.1 µM.

Q: What about the GI50 [3] of the same compound?
A: Its GI50 is 89.8 µM.

Q: And the TGI [3]?
A: Its TGI is > 100 µM.

Q: And the GI50 [4]?
A: The GI50 was 12.8 µM.

Q: And the TGI [4]?
A: The TGI was 52.2 µM.

Q: And the GI50 [5]?
A: The GI50 was 2.04 µM.

Q: And the TGI [5]?
A: Its TGI is 6.09 µM.

Q: What about the GI50 [6] of the same compound?
A: Its GI50 is 4.9 µM.

Q: What about the TGI [6] of the same compound?
A: Its TGI is 30 µM.

Q: What about the GI50 [7] of the same compound?
A: The GI50 was 12 µM.

Q: What about the TGI [7] of the same compound?
A: The TGI was > 100 µM.

Q: And the GI50 [8]?
A: Its GI50 is 16 µM.

Q: What about the TGI [8] of the same compound?
A: The TGI was > 100 µM.

Q: And the GI50 [9]?
A: Its GI50 is 22.7 µM.

Q: What about the TGI [9] of the same compound?
A: Its TGI is > 100 µM.

Q: `Cc1cc(C)c2c(c1)Nc1ccccc1P2c1ccccc1` (stereo not given) was tested. Which TGI [1] did it give?
A: Its TGI is > 100 µM.

Q: What about the TGI [10] of the same compound?
A: The TGI was 71.8 µM.

Q: What about the TGI [5] of the same compound?
A: The TGI was 56.3 µM.

Q: And the TGI [6]?
A: The TGI was > 100 µM.

Q: And the TGI [8]?
A: Its TGI is 59.6 µM.

Q: With `O=C(O)CCSCCCN1C(=O)c2ccccc2C1=O` as the compound, how does the TGI [1] read?
A: Its TGI is > 100 µM.

Q: And the TGI [2]?
A: The TGI was > 100 µM.

Q: What about the TGI [10] of the same compound?
A: Its TGI is > 100 µM.

Q: And the TGI [5]?
A: The TGI was > 100 µM.

Q: And the TGI [6]?
A: The TGI was > 100 µM.

Q: And the TGI [7]?
A: The TGI was > 100 µM.

Q: What about the TGI [9] of the same compound?
A: Its TGI is > 100 µM.

Q: What does the source list for `O=C(/C=C/c1ccc(Cl)c(Cl)c1)c1ccc(F)cc1`?
A: TGI [2]: 92.6 µM; TGI [3]: 20.5 µM; TGI [4]: 18.5 µM; TGI [10]: 83.4 µM; TGI [5]: 41.6 µM; TGI [6]: 30.8 µM; TGI [8]: 33.6 µM; TGI [9]: 31.6 µM

Q: Which TGI [2] does the source give for `CC1CC2C(=O)N(c3ccccc3)C(=O)C2c2c1c1ccccc1n2Cc1ccccc1` (stereo not given) here?
A: The TGI was > 100 µM.

Q: And the TGI [3]?
A: Its TGI is > 100 µM.

Q: What about the TGI [4] of the same compound?
A: The TGI was 92.3 µM.

Q: And the TGI [10]?
A: The TGI was > 100 µM.

Q: And the TGI [5]?
A: The TGI was > 100 µM.

Q: And the TGI [6]?
A: The TGI was > 100 µM.

Q: What about the TGI [7] of the same compound?
A: The TGI was > 100 µM.

Q: And the TGI [8]?
A: Its TGI is > 100 µM.

Q: And the TGI [9]?
A: Its TGI is > 100 µM.

Q: What does the source list for `O=c1[nH]nc2ccccc2c1Cl`?
A: TGI [2]: 52.8 µM; TGI [3]: 34.9 µM; TGI [10]: 31 µM; TGI [5]: 46.9 µM; TGI [6]: 54.3 µM; TGI [7]: 33.6 µM; TGI [9]: 30.8 µM

Q: `c1cc(CCN2CCCCC2)ccn1` was tested. Which TGI [1] did it give?
A: Its TGI is > 100 µM.

Q: What about the TGI [2] of the same compound?
A: Its TGI is > 100 µM.

Q: And the TGI [4]?
A: The TGI was > 100 µM.

Q: And the TGI [10]?
A: Its TGI is > 100 µM.

Q: And the TGI [5]?
A: The TGI was > 100 µM.

Q: And the TGI [6]?
A: Its TGI is > 100 µM.

Q: And the TGI [7]?
A: The TGI was > 100 µM.

Q: And the TGI [9]?
A: Its TGI is > 100 µM.

Q: For `Cn1ccc2c(c1=O)C(=O)c1nccc3c1c-2nc1ccccc13`, which GI50 [1] is on record?
A: The GI50 was 1.49 µM.

Q: And the TGI [1]?
A: The TGI was 2.95 µM.

Q: What about the GI50 [2] of the same compound?
A: Its GI50 is 12.5 µM.

Q: What about the TGI [2] of the same compound?
A: The TGI was 26.4 µM.

Q: And the GI50 [3]?
A: Its GI50 is 2.21 µM.

Q: And the TGI [3]?
A: Its TGI is > 100 µM.

Q: What about the GI50 [10] of the same compound?
A: The GI50 was 2.2 µM.

Q: And the TGI [10]?
A: The TGI was 4.09 µM.

Q: What about the GI50 [5] of the same compound?
A: The GI50 was 1.54 µM.

Q: And the TGI [5]?
A: The TGI was 3.02 µM.

Q: What about the GI50 [8] of the same compound?
A: Its GI50 is 2.21 µM.

Q: And the TGI [8]?
A: The TGI was 5.03 µM.

Q: What about the GI50 [9] of the same compound?
A: The GI50 was 1.59 µM.

Q: What about the TGI [9] of the same compound?
A: The TGI was 2.99 µM.

Q: What does the source list for `[C-]#[O+].[C-]#[O+].[C-]#[O+].[C-]#[O+].[Ir].[Ir].[O-]c1ccc2ccccc2c1C=Nc1ccc(N=Cc2c([O-])ccc3ccccc23)cc1`?
A: GI50 [1]: > 100 µM; TGI [1]: > 100 µM; GI50 [2]: > 100 µM; TGI [2]: > 100 µM; GI50 [3]: 66 µM; TGI [3]: > 100 µM; GI50 [10]: > 100 µM; TGI [10]: > 100 µM; GI50 [5]: > 100 µM; TGI [5]: > 100 µM; GI50 [6]: > 100 µM; TGI [6]: > 100 µM; GI50 [7]: > 100 µM; TGI [7]: > 100 µM; GI50 [8]: 75.5 µM; TGI [8]: > 100 µM; GI50 [9]: > 100 µM; TGI [9]: > 100 µM

Q: Which results are given for `N#Cc1c(N)nc(N2CCOCC2)c(C#N)c1-c1ccc(Cl)cc1`?
A: GI50 [1]: 0.475 µM; TGI [1]: 45.1 µM; GI50 [2]: 50.4 µM; TGI [2]: > 100 µM; GI50 [3]: 34.5 µM; TGI [3]: > 100 µM; GI50 [5]: 44.8 µM; TGI [5]: > 100 µM; GI50 [6]: 28 µM; TGI [6]: > 100 µM; GI50 [7]: 18.1 µM; TGI [7]: 56.2 µM

Q: With `CCN1CCN(CC(=O)Nc2nc3ccc(NCc4ccc(Cl)cc4)cc3s2)CC1` as the compound, how does the GI50 [1] read?
A: The GI50 was 1.54 µM.

Q: And the TGI [1]?
A: Its TGI is 3.05 µM.

Q: And the GI50 [3]?
A: The GI50 was 2.43 µM.

Q: And the TGI [3]?
A: The TGI was 8.22 µM.

Q: And the GI50 [4]?
A: Its GI50 is 2.2 µM.

Q: What about the TGI [4] of the same compound?
A: The TGI was 5.19 µM.

Q: What about the GI50 [10] of the same compound?
A: Its GI50 is 1.67 µM.

Q: And the TGI [10]?
A: The TGI was 3.2 µM.

Q: What about the GI50 [6] of the same compound?
A: Its GI50 is 4.59 µM.

Q: What about the TGI [6] of the same compound?
A: Its TGI is > 100 µM.

Q: And the GI50 [7]?
A: The GI50 was 2.02 µM.

Q: What about the TGI [7] of the same compound?
A: The TGI was 3.98 µM.

Q: And the GI50 [8]?
A: Its GI50 is 1.95 µM.

Q: What about the TGI [8] of the same compound?
A: The TGI was 3.87 µM.

Q: And the GI50 [9]?
A: The GI50 was 2.22 µM.

Q: What about the TGI [9] of the same compound?
A: Its TGI is 5.02 µM.

Q: What does the source list for `O=c1c(Sc2c(O)c3ccccc3c3ccccc3c2=O)c(O)c2ccccc2c2ccccc12`?
A: TGI [1]: > 100 µM; TGI [3]: 56.6 µM; TGI [4]: 47.8 µM; TGI [10]: > 100 µM; TGI [5]: > 100 µM; TGI [6]: > 100 µM; TGI [7]: 68.5 µM; TGI [8]: 41.8 µM; TGI [9]: 78.5 µM

Q: What does the source list for `CC(=O)NCCSC(=O)c1ccccc1`?
A: TGI [1]: 0.958 µM; TGI [2]: 0.413 µM; TGI [3]: 0.49 µM; TGI [10]: 0.304 µM; TGI [5]: 0.83 µM; TGI [6]: 0.81 µM; TGI [7]: 0.827 µM; GI50 [8]: 0.026 µM; TGI [8]: 0.829 µM; TGI [9]: 0.0971 µM

Q: With `OCC(O)C(OC1OC(CO)C(O)C(O)C1O)c1nn(-c2ccccc2)c2nc3cc(Cl)c(Cl)cc3cc12` (stereo not given) as the compound, how does the TGI [1] read?
A: The TGI was > 100 µM.

Q: What about the TGI [3] of the same compound?
A: The TGI was > 100 µM.

Q: What about the TGI [4] of the same compound?
A: Its TGI is > 100 µM.

Q: And the TGI [10]?
A: The TGI was > 100 µM.

Q: What about the TGI [5] of the same compound?
A: Its TGI is > 100 µM.

Q: What about the TGI [6] of the same compound?
A: The TGI was > 100 µM.

Q: And the TGI [9]?
A: Its TGI is > 100 µM.

Reference: PubChem BioAssay (NCI)
